Test: xn = mol fraction of the nth substance listed, in the solute-free solvent

Nc1nc2ccc(OC(F)(F)F)cc2s1 + CCCO + O
solubility (g/100 g solution)
Settings | 278.15 K | 283.15 K | 288.15 K | 293.15 K | 298.15 K | 303.15 K | 308.15 K | 313.15 K | 318.15 K | 323.15 K
x2 = 0.1138 | 11.3 | 12.7 | 13.8 | 14.7 | 15.4 | 16.1 | 16.7 | 17.1 | 17.7 | 18.2
x2 = 0.1666 | 19.6 | 21.1 | 22.3 | 23.1 | 24 | 24.9 | 25.7 | 26.4 | 27.5 | 28.6
x2 = 0.2306 | 33.4 | 34.7 | 35.8 | 37.2 | 38.1 | 39.2 | 40.1 | 40.9 | 41.9 | 42.8
x2 = 0.3103 | 39.9 | 40.9 | 42.4 | 43.4 | 45 | 46.2 | 47.9 | 49.2 | 50.6 | 52.4
x2 = 0.4116 | 53.3 | 56.1 | 58.5 | 60.7 | 63 | 64.6 | 66.3 | 67.6 | 68.7 | 69.7
x2 = 0.5454 | 54.6 | 56.3 | 57.9 | 59.9 | 61.7 | 63.6 | 65.3 | 66.6 | 67.9 | 68.7
x2 = 0.7292 | 48.8 | 50.6 | 52.6 | 54.6 | 56.6 | 58.2 | 60.2 | 61.6 | 63.1 | 64

Cc1ncc(CO)c(CO)c1O.Cl + O + CC#N
solubility (g/100 g solution)
Settings | 278.15 K | 283.15 K | 288.15 K | 293.15 K | 298.15 K | 303.15 K | 308.15 K | 313.15 K
x2 = 0.3 | 0.681 | 0.776 | 0.889 | 1.02 | 1.16 | 1.3 | 1.47 | 1.67
x2 = 0.4 | 2.06 | 2.27 | 2.65 | 2.92 | 3.32 | 3.7 | 4.04 | 4.51
x2 = 0.5 | 3.81 | 4.09 | 4.73 | 5.11 | 5.79 | 6.6 | 7.19 | 8.12
x2 = 0.6 | 5.82 | 6.51 | 7.44 | 8.31 | 9.5 | 10.3 | 11.2 | 12.6
x2 = 0.7 | 8.18 | 9.25 | 10.4 | 11.8 | 13.4 | 14.2 | 15.5 | 17.9
x2 = 0.8 | 10.6 | 11.9 | 13.4 | 15.2 | 16.6 | 18.3 | 20 | 23.4
x2 = 0.9 | 11.5 | 13.3 | 14.6 | 17 | 18.6 | 20.7 | 22.7 | 26.3

Cc1nc2n(c(=O)c1CCN1CCC(c3noc4cc(F)ccc34)CC1)CCCC2 + CC(C)=O + O
solubility (g/100 g solution)
Settings | 278.15 K | 283.15 K | 288.15 K | 293.15 K | 298.15 K | 303.15 K | 308.15 K | 313.15 K
x2 = 0.1175 | 0.369 | 0.399 | 0.453 | 0.525 | 0.623 | 0.702 | 0.817 | 0.918
x2 = 0.1714 | 0.727 | 0.805 | 0.935 | 1.11 | 1.27 | 1.53 | 1.7 | 2.03
x2 = 0.2368 | 1.54 | 1.75 | 2.02 | 2.34 | 2.73 | 3.22 | 3.75 | 4.38
x2 = 0.3171 | 2.54 | 2.93 | 3.36 | 3.95 | 4.61 | 5.44 | 6.41 | 7.62
x2 = 0.42 | 3.38 | 3.87 | 4.49 | 5.26 | 6.16 | 7.21 | 8.51 | 10.1
x2 = 0.5538 | 3.5 | 4.03 | 4.71 | 5.51 | 6.46 | 7.65 | 9.06 | 10.7
x2 = 0.7366 | 2.51 | 2.92 | 3.5 | 4.08 | 4.75 | 5.67 | 6.67 | 7.88

Cc1c(Br)c(=O)n(C2CCCC2)c2nc(Cl)ncc12 + C1CCOC1 + CCO
solubility (g/100 g solution)
Settings | 278.15 K | 283.15 K | 288.15 K | 293.15 K | 298.15 K | 303.15 K | 308.15 K | 313.15 K | 318.15 K | 323.15 K
x2 = 0.1 | 0.59 | 0.723 | 0.88 | 1.07 | 1.28 | 1.53 | 1.82 | 2.14 | 2.52 | 2.94
x2 = 0.2 | 1.06 | 1.25 | 1.51 | 1.81 | 2.16 | 2.56 | 3.01 | 3.52 | 4.1 | 4.74
x2 = 0.3 | 1.49 | 1.8 | 2.16 | 2.58 | 3.05 | 3.6 | 4.21 | 4.9 | 5.66 | 6.51
x2 = 0.4 | 1.9 | 2.29 | 2.74 | 3.26 | 3.84 | 4.51 | 5.26 | 6.1 | 7.04 | 8.07
x2 = 0.5 | 2.25 | 2.71 | 3.34 | 3.83 | 4.52 | 5.29 | 6.16 | 7.13 | 8.2 | 9.38
x2 = 0.6 | 2.56 | 3.07 | 3.67 | 4.35 | 5.12 | 5.99 | 6.96 | 8.04 | 9.23 | 10.5
x2 = 0.7 | 2.85 | 3.42 | 4.08 | 4.83 | 5.68 | 6.64 | 7.71 | 8.9 | 10.2 | 11.7
x2 = 0.8 | 3.12 | 3.75 | 4.47 | 5.29 | 6.22 | 7.27 | 8.44 | 9.73 | 11.2 | 12.7
x2 = 0.9 | 3.34 | 4.01 | 4.79 | 5.67 | 6.67 | 7.79 | 9.04 | 10.4 | 11.9 | 13.6

Nc1nc2ccc(OC(F)(F)F)cc2s1 + CCO + O
solubility (g/100 g solution)
Settings | 278.15 K | 283.15 K | 288.15 K | 293.15 K | 298.15 K | 303.15 K | 308.15 K | 313.15 K | 318.15 K | 323.15 K
x2 = 0.2068 | 16 | 19.7 | 23.8 | 26.5 | 32.5 | 38.3 | 43.3 | 47.4 | 51.7 | 55.5
x2 = 0.2812 | 31.4 | 35.5 | 39.9 | 43.9 | 48.1 | 52.1 | 56.1 | 59.6 | 62.5 | 64.8
x2 = 0.3697 | 56.3 | 58.7 | 60.7 | 63.2 | 65.5 | 67.8 | 69.7 | 70.9 | 72.7 | 74
x2 = 0.4772 | 50.7 | 53.3 | 55.4 | 58.1 | 60.6 | 63.6 | 66 | 68 | 69.9 | 71.4
x2 = 0.6099 | 53.2 | 55.1 | 57.4 | 59.7 | 61.7 | 63.6 | 65.3 | 67 | 68.6 | 69.9
x2 = 0.7786 | 52.6 | 54.4 | 57.2 | 59 | 61.3 | 63.1 | 64.9 | 66.7 | 68.2 | 70

NC(=O)NC1NC(=O)NC1=O (configuration not stated) + OCCO + CO
solubility (g/100 g solution)
Settings | 288.15 K | 293.15 K | 298.15 K | 303.15 K | 308.15 K | 313.15 K | 318.15 K | 323.15 K | 328.15 K | 333.15 K
x2 = 0.154 | 0.124 | 0.146 | 0.174 | 0.21 | 0.242 | 0.287 | 0.338 | 0.396 | 0.461 | 0.524
x2 = 0.326 | 0.188 | 0.22 | 0.268 | 0.336 | 0.395 | 0.438 | 0.508 | 0.566 | 0.651 | 0.732
x2 = 0.521 | 0.305 | 0.338 | 0.387 | 0.447 | 0.531 | 0.613 | 0.66 | 0.756 | 0.83 | 0.938
x2 = 0.744 | 0.455 | 0.481 | 0.55 | 0.634 | 0.702 | 0.78 | 0.851 | 1 | 1.09 | 1.25

Cc1c(Br)c(=O)n(C2CCCC2)c2nc(Cl)ncc12 + CCOC(C)=O + CCO
solubility (g/100 g solution)
Settings | 278.15 K | 283.15 K | 288.15 K | 293.15 K | 298.15 K | 303.15 K | 308.15 K | 313.15 K | 318.15 K | 323.15 K
x2 = 0.1 | 0.181 | 0.219 | 0.26 | 0.312 | 0.368 | 0.429 | 0.506 | 0.589 | 0.684 | 0.79
x2 = 0.2 | 0.238 | 0.286 | 0.341 | 0.403 | 0.475 | 0.553 | 0.645 | 0.746 | 0.86 | 0.987
x2 = 0.3 | 0.297 | 0.353 | 0.418 | 0.491 | 0.574 | 0.668 | 0.775 | 0.892 | 1.02 | 1.17
x2 = 0.4 | 0.349 | 0.414 | 0.492 | 0.571 | 0.665 | 0.77 | 0.888 | 1.02 | 1.17 | 1.32
x2 = 0.5 | 0.396 | 0.467 | 0.548 | 0.639 | 0.742 | 0.856 | 0.984 | 1.13 | 1.28 | 1.45
x2 = 0.6 | 0.438 | 0.514 | 0.602 | 0.701 | 0.811 | 0.931 | 1.07 | 1.22 | 1.38 | 1.57
x2 = 0.7 | 0.478 | 0.56 | 0.652 | 0.756 | 0.873 | 1 | 1.15 | 1.3 | 1.48 | 1.67
x2 = 0.8 | 0.52 | 0.608 | 0.706 | 0.817 | 0.939 | 1.08 | 1.23 | 1.39 | 1.57 | 1.77
x2 = 0.9 | 0.571 | 0.665 | 0.77 | 0.888 | 1.02 | 1.16 | 1.32 | 1.5 | 1.69 | 1.9

CC(S)C(=O)NCC(=O)O (configuration not stated) + CC(C)CO + CC#N
solubility (g/100 g solution)
Settings | 273.15 K | 278.15 K | 283.15 K | 288.15 K | 293.15 K | 298.15 K | 303.15 K | 308.15 K | 313.15 K | 318.15 K
x2 = 0.1216 | 3.99 | 4.43 | 4.93 | 5.48 | 6.05 | 6.7 | 7.36 | 8.06 | 8.81 | 9.64
x2 = 0.2697 | 4.62 | 5.31 | 6.02 | 6.81 | 7.59 | 8.41 | 9.25 | 10.1 | 11.2 | 12.4
x2 = 0.4538 | 7.02 | 7.59 | 8.23 | 8.89 | 9.58 | 10.4 | 11.1 | 12 | 13 | 13.9
x2 = 0.689 | 4.17 | 4.7 | 5.22 | 5.84 | 6.48 | 7.14 | 7.88 | 8.69 | 9.56 | 10.5
